{
  "source": "patent US20260191825A1",
  "about": "“CONTRACEPTIVE COMPOUNDS AND DOSING FOR THE SAME” (YourChoice Therapeutics, Inc., priority 2024, published 2026)",
  "key": {"[1]": {"experiment": "Dog 28-day repeat-dose GLP toxicity study", "format": "in vivo", "settings": "male, Beagle, in vivo; for NOAEL at 28 days: dog"}, "hERG": {"target": "hERG (Homo sapiens, UniProt Q12809)", "sequence (Q12809 whole entry)": "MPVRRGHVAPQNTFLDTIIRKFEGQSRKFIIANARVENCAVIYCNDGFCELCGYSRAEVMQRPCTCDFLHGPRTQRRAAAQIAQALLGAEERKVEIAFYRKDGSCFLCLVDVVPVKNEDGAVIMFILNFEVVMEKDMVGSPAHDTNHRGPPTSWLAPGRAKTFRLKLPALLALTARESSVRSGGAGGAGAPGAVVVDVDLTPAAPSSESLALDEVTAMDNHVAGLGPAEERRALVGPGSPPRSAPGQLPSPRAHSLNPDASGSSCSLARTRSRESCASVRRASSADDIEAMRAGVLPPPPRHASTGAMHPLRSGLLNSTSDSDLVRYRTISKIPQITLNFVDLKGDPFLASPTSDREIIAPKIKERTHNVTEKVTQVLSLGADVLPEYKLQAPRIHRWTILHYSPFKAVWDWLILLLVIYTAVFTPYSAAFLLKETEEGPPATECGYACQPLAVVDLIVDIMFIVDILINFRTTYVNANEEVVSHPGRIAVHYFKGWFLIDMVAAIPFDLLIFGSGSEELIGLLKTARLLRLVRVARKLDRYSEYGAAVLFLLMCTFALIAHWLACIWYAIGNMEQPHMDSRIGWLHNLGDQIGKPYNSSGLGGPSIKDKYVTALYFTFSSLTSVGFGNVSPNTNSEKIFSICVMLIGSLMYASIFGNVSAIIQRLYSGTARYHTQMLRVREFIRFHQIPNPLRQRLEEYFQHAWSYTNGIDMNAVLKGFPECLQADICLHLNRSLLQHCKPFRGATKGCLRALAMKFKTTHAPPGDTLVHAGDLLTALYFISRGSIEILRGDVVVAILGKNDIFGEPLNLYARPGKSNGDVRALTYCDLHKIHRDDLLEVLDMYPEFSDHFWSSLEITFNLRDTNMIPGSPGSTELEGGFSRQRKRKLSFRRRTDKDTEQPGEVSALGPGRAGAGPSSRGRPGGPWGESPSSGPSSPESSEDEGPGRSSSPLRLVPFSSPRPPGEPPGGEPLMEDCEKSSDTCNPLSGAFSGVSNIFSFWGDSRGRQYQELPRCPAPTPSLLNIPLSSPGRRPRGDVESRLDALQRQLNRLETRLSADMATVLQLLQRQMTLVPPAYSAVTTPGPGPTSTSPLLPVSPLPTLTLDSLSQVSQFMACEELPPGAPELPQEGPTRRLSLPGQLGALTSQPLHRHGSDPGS", "experiment": "hERG GLP safety pharmacology study"}, "respiratory system": {"test_system": "respiratory system", "experiment": "Rat respiratory safety pharmacology study", "format": "in vivo", "settings": "male Sprague Dawley rats, single oral doses of 3, 10 or 30 mg/kg"}, "[2]": {"test_system": "central nervous system (CNS)", "experiment": "Rat FOB / CNS safety pharmacology study", "format": "in vivo", "settings": "male Sprague Dawley rats, single oral doses of 3, 10 or 30 mg/kg"}, "healthy vasectomized men": {"test_system": "healthy vasectomized men", "experiment": "Phase 1a single ascending oral dose study, safety and tolerability", "format": "in vivo, human", "method": "The doses tested under fasting conditions were 10, 30, 90 and 180 mg. […] Cohort 1 first received 10 mg, and after a 5-week washout period received 30 mg. Cohort 2 received 90 mg followed by 180 mg after a 5-week washout period."}, "[3]": {"experiment": "Rat single dose GLP study (toxicity, sperm parameters)", "format": "in vivo", "settings": "male, in vivo; rat, single dose; highest dose tested", "from_the_text": "(§1) No efficacy was observed after single dose studies in the rat."}, "male rats": {"test_system": "male rats", "experiment": "Rat single dose GLP study (toxicity, sperm parameters)", "format": "in vivo", "from_the_text": "as §1"}, "[4]": {"experiment": "NHP exploratory 14-day non-GLP repeat-dose study", "format": "in vivo, cynomolgus monkey", "settings": "male, cynomolgus monkey, in vivo; for NOAEL at 14 days: NHP", "method": "(§2) An exploratory 14-day non-GLP study was conducted in male NHPs (cynomolgus monkeys) for assessment of efficacy and toxicity parameters prior to the conduct of the 28-day GLP toxicity studies in rats and dogs."}, "[5]": {"test_system": "male NHPs (cynomolgus monkeys)", "experiment": "NHP exploratory 14-day non-GLP repeat-dose study", "format": "in vivo, cynomolgus monkey", "method": "as §2"}, "rats": {"test_system": "rats", "experiment": "Rat repeat dose non-GLP efficacy study (sperm counts, MABEL)", "format": "in vivo", "method": "Rat testicular toxicity reversibility characteristics and findings after repeat dosing are discussed in Section 3.1.4.\nRat 35-day repeat dose non-GLP study with a MABEL of 0.75 mg/kg/day."}, "male mice": {"test_system": "male mice", "experiment": "Mouse single dose non-GLP study", "format": "in vivo"}, "plasma proteins": {"test_system": "plasma proteins", "experiment": "In vitro plasma protein binding", "format": "in vitro ADME", "settings": "1 μM, all species tested (human, monkey, mouse, rat, dog)"}, "CYP1A2": {"target": "CYP1A2 (Homo sapiens, UniProt P05177)", "sequence (P05177 whole entry)": "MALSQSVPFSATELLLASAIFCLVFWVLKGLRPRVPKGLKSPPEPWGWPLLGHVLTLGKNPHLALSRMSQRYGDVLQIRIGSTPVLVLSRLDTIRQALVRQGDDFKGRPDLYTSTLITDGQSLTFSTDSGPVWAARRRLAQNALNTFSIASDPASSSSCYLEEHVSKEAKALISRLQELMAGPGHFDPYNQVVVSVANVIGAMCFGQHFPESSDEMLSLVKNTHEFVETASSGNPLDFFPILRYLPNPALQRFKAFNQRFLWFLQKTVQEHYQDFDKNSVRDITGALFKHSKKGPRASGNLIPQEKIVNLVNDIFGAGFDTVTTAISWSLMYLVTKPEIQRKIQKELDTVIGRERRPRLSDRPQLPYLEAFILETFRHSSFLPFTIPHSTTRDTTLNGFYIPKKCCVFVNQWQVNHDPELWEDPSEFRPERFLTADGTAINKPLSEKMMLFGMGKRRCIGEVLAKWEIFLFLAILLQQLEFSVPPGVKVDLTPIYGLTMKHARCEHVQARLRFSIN", "experiment": "In vitro CYP inhibition (direct and time-dependent), CYP1A2", "format": "in vitro ADME", "from_the_text": "(§3) However, the likelihood of drug interactions is low since healthy participants who meet eligibility criteria will be enrolled in this Phase 1b/2a clinical trial. An allowance for select concomitant medications may be considered for select participants at the discretion of the investigator and/or sponsor if drug profiles are not anticipated to interact with Compound A. Such medications may include, but will not be limited to paracetamol or ibuprofen as assessed by both the PI and the Sponsor. […] Additional precautions to avoid grapefruit, pomegranates, star fruit, or Seville oranges for 7 days prior to admission, and juices and products containing these fruits for the duration of the study will be taken."}, "CYP2C8": {"target": "CYP2C8 (Homo sapiens, UniProt P10632)", "sequence (P10632 whole entry)": "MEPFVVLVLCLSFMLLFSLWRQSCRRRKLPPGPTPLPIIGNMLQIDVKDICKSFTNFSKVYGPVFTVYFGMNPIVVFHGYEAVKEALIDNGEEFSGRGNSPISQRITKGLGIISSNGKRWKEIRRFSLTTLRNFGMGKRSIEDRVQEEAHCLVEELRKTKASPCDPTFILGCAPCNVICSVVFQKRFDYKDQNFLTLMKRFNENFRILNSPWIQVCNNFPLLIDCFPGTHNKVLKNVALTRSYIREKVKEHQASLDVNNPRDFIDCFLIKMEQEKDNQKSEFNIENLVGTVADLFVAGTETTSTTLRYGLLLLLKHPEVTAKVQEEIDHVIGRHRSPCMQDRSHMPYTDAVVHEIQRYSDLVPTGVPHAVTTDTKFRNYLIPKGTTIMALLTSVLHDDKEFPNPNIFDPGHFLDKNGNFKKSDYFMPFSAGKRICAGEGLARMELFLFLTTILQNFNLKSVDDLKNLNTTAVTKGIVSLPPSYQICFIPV", "experiment": "In vitro CYP inhibition (direct and time-dependent), CYP2C8", "format": "in vitro ADME", "from_the_text": "as §3"}, "CYP2C9": {"target": "CYP2C9 (Homo sapiens, UniProt P11712)", "sequence (P11712 whole entry)": "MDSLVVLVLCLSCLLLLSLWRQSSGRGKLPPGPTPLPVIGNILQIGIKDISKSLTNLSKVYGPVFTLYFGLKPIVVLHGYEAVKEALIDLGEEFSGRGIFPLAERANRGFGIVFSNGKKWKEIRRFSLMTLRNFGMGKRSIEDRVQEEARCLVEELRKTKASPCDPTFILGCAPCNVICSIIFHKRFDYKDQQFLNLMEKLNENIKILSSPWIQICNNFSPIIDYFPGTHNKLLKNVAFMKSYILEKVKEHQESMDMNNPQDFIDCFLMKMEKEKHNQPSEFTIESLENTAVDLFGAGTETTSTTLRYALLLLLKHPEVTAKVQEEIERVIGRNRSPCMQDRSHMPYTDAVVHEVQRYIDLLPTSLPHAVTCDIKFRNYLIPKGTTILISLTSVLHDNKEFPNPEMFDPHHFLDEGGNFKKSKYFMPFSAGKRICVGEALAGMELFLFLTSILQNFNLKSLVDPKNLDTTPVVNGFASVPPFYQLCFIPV", "experiment": "In vitro CYP inhibition (direct and time-dependent), CYP2C9", "format": "in vitro ADME", "from_the_text": "as §3"}, "CYP2D6": {"target": "CYP2D6 (Homo sapiens, UniProt P10635)", "sequence (P10635 whole entry)": "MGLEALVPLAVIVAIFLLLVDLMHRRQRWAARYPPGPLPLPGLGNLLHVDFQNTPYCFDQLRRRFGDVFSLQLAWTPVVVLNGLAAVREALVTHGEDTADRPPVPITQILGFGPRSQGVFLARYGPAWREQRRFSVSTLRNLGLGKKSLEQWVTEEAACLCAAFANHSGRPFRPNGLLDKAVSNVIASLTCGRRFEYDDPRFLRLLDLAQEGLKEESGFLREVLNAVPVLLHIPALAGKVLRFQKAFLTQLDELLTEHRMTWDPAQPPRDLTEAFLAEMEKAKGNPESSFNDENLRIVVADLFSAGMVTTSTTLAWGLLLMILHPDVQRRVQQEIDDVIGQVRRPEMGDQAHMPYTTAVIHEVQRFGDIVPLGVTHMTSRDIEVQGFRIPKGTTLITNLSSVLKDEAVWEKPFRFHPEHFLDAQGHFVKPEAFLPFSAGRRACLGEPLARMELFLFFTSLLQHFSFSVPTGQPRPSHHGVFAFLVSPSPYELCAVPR", "experiment": "In vitro CYP inhibition (direct and time-dependent), CYP2D6", "format": "in vitro ADME", "from_the_text": "as §3"}, "[6]": {"experiment": "In vitro molar extinction coefficient assay", "format": "physicochemical", "settings": "UV light", "from_the_text": "As a result, participants will be advised to minimize exposure to sunlight, wear sunglasses and clothing that minimizes exposure to sunlight, and use sun cream on exposed areas when going outdoors during the 28-Day dosing period and until 10 days post last dose."}, "healthy men": {"test_system": "healthy men", "experiment": "Phase 1b MAD study (Part 1), 28-day dosing, safety and tolerability", "format": "in vivo, human", "method": "(§4) Cohort 4 (receiving 180 mg) is currently being studied."}, "sperm counts": {"test_system": "sperm counts", "experiment": "Phase 1b MAD study (Part 1), 28-day dosing, sperm counts", "format": "in vivo, human", "settings": "men dosed for 4 weeks (28 oral doses) at doses of up to 90 mg", "from_the_text": "The main underlying reason provided by experts in the male contraceptive field is the dosing duration. Dosing for 28 days in men only covers approximately one third of the entire cycle from sperm production to sperm release, which takes 85 days in men (71 days for one spermatogenic cycle and 14 days for epididymal transit). […] Therefore, the dosing period will be extended from 28 days to 90 days with the anticipation that this will show the intended effect (reduction in sperm concentration).\nas §4"}, "rat": {"test_system": "rat", "experiment": "Rat repeat daily dosing at non-tolerated doses", "format": "in vivo", "method": "These doses convert to respective Human Equivalent Doses (HEDs) of ≥1,612.8 mg and ≥444.8 mg fixed dose based on 80 kg body weight. […] Safety laboratory analyses include serum chemistry, hematology, coagulation, and lipid panel."}, "[7]": {"settings": "15, 30 or 90 mg once daily for 28 days"}},
  "note": "Where “and” joins values, the source holds several entries; their conditions need not be identical. Equal entries are not always repeated. Entries after “also recorded” stand apart in the source; their conditions may differ.",
  "data": [
    {"smiles": "Cc1ccc(C2=CC(C)(C)Oc3ccc(-c4ccc(-c5ccc(C(=O)O)cc5)[nH]4)cc32)cc1", "note": "[Compound A]", "values": [
      {"measurement": "Human equivalent dose of NOAEL at 28 days", "setting": "[1]; dog 28-day GLP, NOAEL 5 mg/kg/day, read-out: HED of NOAEL", "value": 2.8, "unit": "mg/kg/day"},
      {"measurement": "NOAEL at 28 days", "setting": "[1]; 28-day repeat dose GLP, 2.5-25 mg/kg/day", "value": 5, "unit": "mg/kg/day"},
      {"measurement": "NOAEL at 28 days", "setting": "[1]; 28-day repeat-dose", "value": 5, "unit": "mg/kg"},
      {"measurement": "Main outcomes: hERG", "setting": "hERG", "value": "Clean"},
      {"measurement": "Main outcomes: rat respiratory (adverse effects on respiratory system)", "setting": "respiratory system", "value": "no adverse effects; also recorded: Clean"},
      {"measurement": "Main outcomes: rat FOB (adverse effects on CNS)", "setting": "[2]", "value": "no adverse effects; also recorded: Clean"},
      {"measurement": "Adverse event possibly related to study treatment", "setting": "healthy vasectomized men; after the 30 mg dose", "value": "decreased sex drive in 1 participant"},
      {"measurement": "Adverse event possibly related to study treatment", "setting": "healthy vasectomized men; after the 180 mg dose, Holter monitoring, 1 participant", "value": "asymptomatic cardiac arrhythmia of low clinical concern"},
      {"measurement": "Serious adverse events (SAEs)", "setting": "healthy vasectomized men; single doses 10, 30, 90, 180 mg, fasting", "value": "no serious adverse events"},
      {"measurement": "Adverse events classified as possibly related to study treatment (number)", "setting": "healthy vasectomized men; single doses 10-180 mg", "value": "two"},
      {"measurement": "Safety and tolerability", "setting": "healthy vasectomized men; single doses up to 180 mg, fasted state, healthy volunteers", "value": "safe and well tolerated"},
      {"measurement": "NOAEL at 15 days", "setting": "[3]", "value": 1000, "unit": "mg/kg"},
      {"measurement": "Tolerated single dose (highest dose tested)", "setting": "male rats; male rats, GLP study", "value": "1,000 mg/kg"},
      {"measurement": "Human dose 60 kg, safety factor 10", "setting": "male rats; male, rat, in vivo, 15 days", "value": 967.74, "unit": "mg"},
      {"measurement": "HED", "setting": "male rats; rat, single dose 1,000 mg/kg", "value": "161.3 mg/kg and 161.29 mg/kg"},
      {"measurement": "Impact on sperm parameters after single dose", "setting": "male rats; rats, single doses as high as 1,000 mg/kg, Day 15 post dose", "value": "no impact on sperm parameters"},
      {"measurement": "Human equivalent dose of NOAEL at 14 days", "setting": "[4]; NHP 14-day non-GLP, NOAEL 10 mg/kg/day, read-out: HED of NOAEL", "value": 3.2, "unit": "mg/kg/day"},
      {"measurement": "NOAEL at 14 days", "setting": "[4]; 14-day repeat dose non-GLP, 5-20 mg/kg/day", "value": 10, "unit": "mg/kg/day"},
      {"measurement": "NOAEL at 14 days", "setting": "[4]; 14-day repeat-dose", "value": 10, "unit": "mg/kg"},
      {"measurement": "NOAEL increase over the minimum efficacious dose in rats", "setting": "[5]; NHP NOAEL 10 mg/kg/day", "value": 22, "unit": "fold"},
      {"measurement": "Signs of toxicity", "setting": "[5]; cynomolgus monkey, in vivo", "value": "No signs of toxicity"},
      {"measurement": "HED (based on BSA)", "setting": "[5]; of NHP 14-day repeat-dose NOAEL", "value": "3.23 mg/kg and 3.2 mg/kg"},
      {"measurement": "HED for 60 kg BW", "setting": "[5]; of NHP repeat-dose NOAEL", "value": 192, "unit": "mg"},
      {"measurement": "HED for 80 kg BW", "setting": "[5]; of NHP repeat-dose NOAEL", "value": 256, "unit": "mg"},
      {"measurement": "HED (based on BSA) of MABEL", "setting": "rats; rat", "value": 0.1, "unit": "mg/kg"},
      {"measurement": "HED for 60 kg BW of MABEL", "setting": "rats; rat", "value": 7.2, "unit": "mg"},
      {"measurement": "HED for 80 kg BW of MABEL", "setting": "rats; rat", "value": 9.6, "unit": "mg"},
      {"measurement": "MABEL", "setting": "rats; rat, 35-day repeat dose non-GLP", "value": 0.75, "unit": "mg/kg/day"},
      {"measurement": "Lowest dose with decreases in sperm counts / minimum efficacious dose in rats", "setting": "rats; rat, repeat dose for 36 days", "value": 0.75, "unit": "mg/kg/day"},
      {"measurement": "Recovery from disruption of spermatogenesis", "setting": "rats; rats, 28-day dosing at 0.75 mg/kg/day and 1 mg/kg/day", "value": "recover from disruption of spermatogenesis"},
      {"measurement": "Tolerated single dose (highest dose tested)", "setting": "male mice; male mice, non-GLP study", "value": "1,000 mg/kg"},
      {"measurement": "HED of tolerated single dose", "setting": "male mice; mice, 1,000 mg/kg", "value": 81.3, "unit": "mg/kg"},
      {"measurement": "Binding to plasma proteins", "setting": "plasma proteins", "value": "at least 99.99%"},
      {"measurement": "IC50", "setting": "CYP1A2; CYP1A2", "value": 30.1, "unit": "µM"},
      {"measurement": "Time-dependent inhibition (TDI)", "setting": "CYP1A2; CYP1A2, 0.3 to 100 μM", "value": "no TDI potential"},
      {"measurement": "IC50", "setting": "CYP2C8; CYP2C8", "value": 8.37, "unit": "µM"},
      {"measurement": "Time-dependent inhibition (TDI)", "setting": "CYP2C8; CYP2C8, 0.3 to 100 μM", "value": "no TDI potential"},
      {"measurement": "IC50", "setting": "CYP2C9; CYP2C9", "value": 14.6, "unit": "µM"},
      {"measurement": "Time-dependent inhibition (TDI)", "setting": "CYP2C9; CYP2C9, 0.3 to 100 μM", "value": "no TDI potential"},
      {"measurement": "IC50", "setting": "CYP2D6; CYP2D6", "value": "> 100", "unit": "µM"},
      {"measurement": "Time-dependent inhibition (TDI)", "setting": "CYP2D6; CYP2D6, 0.3 to 100 μM", "value": "NADPH-independent time-dependent inhibition"},
      {"measurement": "Phototoxicity potential", "setting": "[6]", "value": "potential to cause phototoxicity"},
      {"measurement": "AEs classified as possibly related to study treatment", "setting": "healthy men; [7]", "value": "moderate ventricular triplet, mild skin rash, mild sunburn, mild increased urinary frequency and mild photosensitivity"},
      {"measurement": "AEs classified as possibly related to study treatment (number)", "setting": "healthy men; [7]", "value": "Five"},
      {"measurement": "Serious adverse events (SAEs)", "setting": "healthy men; 15, 30 or 90 mg once daily for 28 days, fasting, to date", "value": "no serious adverse events"},
      {"measurement": "Safety and tolerability", "setting": "healthy men; 28-day oral administration, up to 90 mg, fasted state", "value": "safe and well tolerated"},
      {"measurement": "Effect on sperm counts", "setting": "sperm counts", "value": "not sufficient to decrease sperm counts; also recorded: firm evidence of sperm reduction has not been observed; also recorded: have not been replicated"},
      {"measurement": "HED of not tolerated dose, fixed dose based on 80 kg body weight", "setting": "rat", "value": "≥ 1,612.8 mg"},
      {"measurement": "Not tolerated repeat daily dose (death and morbidity)", "setting": "rat", "value": "≥ 125", "unit": "mg/kg/day"},
      {"measurement": "Systems affected at non-tolerated doses", "setting": "rat", "value": "hematopoietic, hepatic, adrenal and lymphoid systems were affected"}
    ]}
  ]
}
